Reference: PMC8040040 (ACS Medicinal Chemistry Letters, 2021)
“Also recorded” adds a separate entry of the source.

Assays:
[1] = biological target: T1, RORγt LBD (Homo sapiens, UniProt P51449); assay: TR-FRET coactivator recruitment assay, dose-response of covalent probes; type: biochemical; conditions: TR-FRET dose-response curve plateau
T1 sequence (P51449 265-518): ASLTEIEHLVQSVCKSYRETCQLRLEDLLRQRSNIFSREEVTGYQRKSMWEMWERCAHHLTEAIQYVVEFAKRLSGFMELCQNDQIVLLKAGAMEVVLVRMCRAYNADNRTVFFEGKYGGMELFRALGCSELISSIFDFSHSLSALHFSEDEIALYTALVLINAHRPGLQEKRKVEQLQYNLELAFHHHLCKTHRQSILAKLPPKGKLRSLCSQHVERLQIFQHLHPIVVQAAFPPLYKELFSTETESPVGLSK

[2] = biological target: T2, RORγt Cys320Ala mutant (Homo sapiens, UniProt P51449, C320A); assay: Ligation to RORγt Cys320Ala mutant, Q-TOF MS; type: binding
T2 sequence (P51449 265-507 C320A): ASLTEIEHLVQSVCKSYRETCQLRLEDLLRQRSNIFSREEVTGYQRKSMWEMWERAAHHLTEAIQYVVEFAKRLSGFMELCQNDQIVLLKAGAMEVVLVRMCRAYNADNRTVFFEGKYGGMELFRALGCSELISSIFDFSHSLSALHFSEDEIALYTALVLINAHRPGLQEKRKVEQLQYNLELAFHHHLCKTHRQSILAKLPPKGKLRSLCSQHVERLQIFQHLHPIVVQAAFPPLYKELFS

[3] = biological target: T3, ligated RORγt (covalent orthosteric probe at Cys320) (Homo sapiens, UniProt P51449); type: biochemical
T3 sequence (P51449 265-518): T1 sequence (P51449 265-518)

[4] = biological target: T4, PPARγ (Homo sapiens, UniProt P37231); assay: Ligation; type: binding
T4 sequence (P37231 1-505): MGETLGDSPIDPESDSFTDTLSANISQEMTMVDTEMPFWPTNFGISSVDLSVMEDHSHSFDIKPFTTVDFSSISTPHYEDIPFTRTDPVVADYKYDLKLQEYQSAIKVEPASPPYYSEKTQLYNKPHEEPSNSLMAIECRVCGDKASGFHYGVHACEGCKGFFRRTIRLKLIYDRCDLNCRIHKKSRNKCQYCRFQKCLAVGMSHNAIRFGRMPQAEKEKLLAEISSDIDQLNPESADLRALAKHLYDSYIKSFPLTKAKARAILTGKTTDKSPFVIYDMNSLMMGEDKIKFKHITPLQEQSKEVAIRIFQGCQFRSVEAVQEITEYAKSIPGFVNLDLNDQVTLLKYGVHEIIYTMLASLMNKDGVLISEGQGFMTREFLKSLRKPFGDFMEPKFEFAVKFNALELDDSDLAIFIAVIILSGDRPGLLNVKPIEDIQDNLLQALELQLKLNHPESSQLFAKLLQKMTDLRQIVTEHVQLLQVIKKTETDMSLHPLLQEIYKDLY

| Compound | occlusion of the orthosteric site by the ligated probe [3] | Profile (full/partial inverse agonistic character) [1] | other results |
| --- | --- | --- | --- |
| O=C(Nc1ccccc1)c1cc([N+](=O)[O-])ccc1Cl [Compound 1] | occlusion of the orthosteric binding site |  | Profile (full/partial inverse agonistic character) ([1]; listed as 1 GW9662): Full inv. ago.; Profile (full/partial inverse agonistic character) ([1]; listed as GW9662): full inverse agonist; Ligation to RORγt Cys320Ala mutant [2]: No ligation |
| CNC(=O)c1cc([N+](=O)[O-])ccc1Cl [Compound 2] |  |  | Ligation to PPARγ [4]: fully ligate |
| Cc1ccccc1NC(=O)c1cc([N+](=O)[O-])ccc1Cl [Compound 9] | Clear occlusion of the orthosteric site | partial inverse agonistic behavior; also recorded: Partial inv. ago |  |
| O=C(Nc1ccsc1)c1cc([N+](=O)[O-])ccc1Cl [Compound 11] |  | full inverse agonistic behavior; also recorded: Full inv. ago |  |
